Here are results for one molecule from patent US20250241895A1 (GH RESEARCH IRELAND LIMITED, priority 2022, published 2025).

This data set can be described thus: Pharmacokinetics of 5-MeO-DMT and bufotenine after inhalation. It counts as in vivo, human. How it is done:
Blood samples were obtained at 1; 2; 4; 7; 10; 15; 20; 30; 45 min and 1; 1.5; 2; 3; 4 hours after administration.
PK parameters were generated by algebraic analysis of the concentration versus time plots for each individual. The analysis was carried out using the software Phoenix WinNonlin 6.3.

Turning to `COc1ccc2[nH]cc(CCN(C)C)c2c1` [5-MeO-DMT], the “detectability in the plasma” value (3 hours after inhalation, 6 mg, 12 mg, 18 mg) is given as “no longer detectable”. Moreover, under “inhaled”, the absorption and distribution result was “rapid absorption and distribution”.
